Experimental data as given in US7045533B2, “Naphthalene derivatives” (Novartis AG, priority 2000, dated 2006).

Experiments:
Wistar rats = assay: Test II: Neuropathic Pain Model (partial ligation of the sciatic nerve, mechanical hyperalgesia); type: in vivo; conditions: p.o.; dose necessary to produce 50% reversal of hyperalgesia; rat
Text: Test II: Neuropathic Pain Model
Hyperalgesia is examined in the model of neuropathic pain Induced by partial ligation of the sciatic nerve as described by Seltzer et al. (1990). Briefly, Wistar rats (120–140 g) are anaesthetised, the left sciatic nerve exposed at mid-thigh level through a small incision and ⅓ to ½ of the nerve thickness tightly ligated within a 7.0 silk suture. The wound is closed with a single muscle suture and skin clips and dusted with Aureomycin antibiotic powder. The animals are allowed to recover and used 12–15 days following surgery.
Mechanical hyperalgesia is assessed by measuring paw withdrawal thresholds to an increasing pressure stimulus placed onto the dorsal surface of the paw using an analgesymeter (Ugo-Basile, Milan) with a cut-off of 250 g. Withdrawal thresholds are measured on both the ipsilateral (ligated) and contralateral (unligated) paw prior to (predose) and then up to 6 h following drug or vehicle administration. Data are expressed as withdrawal threshold (g) and percentage reversal of hyperalgesia calculated according to the following formula: […]
Potency is expressed as D50 value, i.e. the dose of compound necessary to produce 50% reversal of hyperalgesia.

SMILES | melting point [°C] | D50 value in the neuropathic pain model (Wistar rats) [mg/kg]
CCCCCOc1ccc(S(=O)(=O)N2CCCc3ccccc32)c2ccccc12 | 78 to 80 | –
CCCCCOc1ccc(C(=O)Oc2cccc3ccccc23)c2ccccc12 | 95 to 100 | –
CCCCCOc1ccc([S+]([O-])c2cccc3ccccc23)c2ccccc12 (centres unmarked) | 88 to 91 | –
CCCCCOc1ccc(S(=O)(=O)c2cccc3ccccc23)c2ccccc12 | 143 to 144 | –
CCCCCOc1ccc(C(=O)c2cccc3ccccc23)c2ccccc12 [Example 1, naphthalen-1-yl-(4-pentyloxy-naphthalen-1-yl)-methanone] | – | 0.18
